Test results as given in ChEMBL document CHEMBL3785070, “Synthesis and evaluation of novel opioid ligands with a C-homomorphinan skeleton” (Bioorg Med Chem, 2016).

Tests used:
[1] = target: T1, Kappa-type opioid receptor (Homo sapiens, UniProt P41145); assay: Displacement of [3H]U-69,593 from human kappa opioid receptor expressed in CHO cell membranes
Mu-type opioid receptor [2] = target: T2, Mu-type opioid receptor (Homo sapiens, UniProt P35372); assay: Displacement of [3H]DAMGO from human mu opioid receptor expressed in CHO cell membranes
[3] = target: T3, Delta-type opioid receptor (Homo sapiens, UniProt P41143); assay: Displacement of [3H]DPDPE from human delta opioid receptor expressed in CHO cell membranes
Mu-type opioid receptor [4] = target: T2, Mu-type opioid receptor; assay: Agonist activity at human mu opioid receptor expressed in CHO cell membranes at 10 uM by [35S]GTPgammaS binding assay relative to DAMGO; type: functional
[5] = target: T1, Kappa-type opioid receptor; assay: Agonist activity at human kappa opioid receptor expressed in CHO cell membranes by [35S]GTPgammaS binding assay relative to U-69,593; type: functional
CHO [6] = assay: Selectivity ratio of Ki for human kappa opioid receptor expressed in CHO cell membranes to Ki for human delta opioid receptor expressed in CHO cell membranes; type: cell-based
[7] = target: T1, Kappa-type opioid receptor; assay: Agonist activity at human kappa opioid receptor expressed in CHO cell membranes by [35S]GTPgammaS binding assay; type: functional
[8] = target: T3, Delta-type opioid receptor; assay: Agonist activity at human delta opioid receptor expressed in CHO cell membranes by [35S]GTPgammaS binding assay; type: functional
[9] = target: T3, Delta-type opioid receptor; assay: Agonist activity at human delta opioid receptor expressed in CHO cell membranes by [35S]GTPgammaS binding assay relative to SNC80; type: functional
CHO [10] = assay: Selectivity ratio of Ki for human mu opioid receptor expressed in CHO cell membranes to Ki for human delta opioid receptor expressed in CHO cell membranes; type: cell-based
Mu-type opioid receptor [11] = target: T2, Mu-type opioid receptor; assay: Agonist activity at human mu opioid receptor expressed in CHO cell membranes by [35S]GTPgammaS binding assay; type: functional
Mu-type opioid receptor [12] = target: T2, Mu-type opioid receptor; assay: Agonist activity at human mu opioid receptor expressed in CHO cell membranes by [35S]GTPgammaS binding assay relative to DAMGO; type: functional
[13] = target: T1, Kappa-type opioid receptor; assay: Agonist activity at human kappa opioid receptor expressed in CHO cell membranes at 10 uM by [35S]GTPgammaS binding assay relative to U-69,593; type: functional

T3 sequence (P41143 whole entry): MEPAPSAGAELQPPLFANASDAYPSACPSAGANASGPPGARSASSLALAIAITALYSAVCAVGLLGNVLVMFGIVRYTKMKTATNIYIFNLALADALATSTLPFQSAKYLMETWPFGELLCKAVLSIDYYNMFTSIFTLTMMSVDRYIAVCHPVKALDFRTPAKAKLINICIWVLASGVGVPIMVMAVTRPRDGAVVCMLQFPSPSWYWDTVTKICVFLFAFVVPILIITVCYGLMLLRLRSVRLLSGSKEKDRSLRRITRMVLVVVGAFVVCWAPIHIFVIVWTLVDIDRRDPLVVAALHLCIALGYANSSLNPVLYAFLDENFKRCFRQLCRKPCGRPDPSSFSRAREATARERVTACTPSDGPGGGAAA
T2 sequence (P35372 whole entry): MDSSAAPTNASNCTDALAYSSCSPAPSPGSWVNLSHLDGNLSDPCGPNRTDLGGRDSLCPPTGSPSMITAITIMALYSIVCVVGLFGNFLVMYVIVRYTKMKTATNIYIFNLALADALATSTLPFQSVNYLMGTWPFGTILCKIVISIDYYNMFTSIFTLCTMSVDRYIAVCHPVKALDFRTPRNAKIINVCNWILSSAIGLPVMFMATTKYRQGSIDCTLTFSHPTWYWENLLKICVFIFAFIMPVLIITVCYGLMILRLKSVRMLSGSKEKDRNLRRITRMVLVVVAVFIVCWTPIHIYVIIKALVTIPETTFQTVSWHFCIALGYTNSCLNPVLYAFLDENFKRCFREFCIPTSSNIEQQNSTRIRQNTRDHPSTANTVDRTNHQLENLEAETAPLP
T1 sequence (P41145 whole entry): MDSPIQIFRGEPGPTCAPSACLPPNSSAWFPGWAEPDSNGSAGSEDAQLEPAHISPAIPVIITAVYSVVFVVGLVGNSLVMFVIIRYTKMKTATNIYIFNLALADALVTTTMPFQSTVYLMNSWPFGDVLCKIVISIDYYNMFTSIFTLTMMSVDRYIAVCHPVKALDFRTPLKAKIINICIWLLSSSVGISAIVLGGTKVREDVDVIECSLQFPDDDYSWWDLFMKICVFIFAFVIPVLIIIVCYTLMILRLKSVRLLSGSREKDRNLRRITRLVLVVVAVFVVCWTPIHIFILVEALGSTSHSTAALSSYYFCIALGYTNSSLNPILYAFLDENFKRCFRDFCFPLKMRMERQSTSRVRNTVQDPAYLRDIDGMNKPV

SMILES	Ki [1] [nM]	Ki (Mu-type opioid receptor [2]) [nM]	Ki [3] [nM]	Activity (Mu-type opioid receptor [4]) [%]	Emax [5] [%]	Ratio Ki (CHO [6])	EC50 [7] [nM]	EC50 [8] [nM]	Emax [9] [%]	Ratio Ki (CHO [10])	EC50 (Mu-type opioid receptor [11]) [nM]	Emax (Mu-type opioid receptor [12]) [%]	Activity [13] [%]
O=C1CCC[C@@]2(O)C3Cc4ccc(O)cc4[C@@]2(CCN3CC2CC2)C1	0.748	0.692	12.1										
O=C1C[C@]23CCN(CC4CC4)[C@H](Cc4ccc(O)cc42)[C@]3(O)C/C1=C\c1ccccc1	39.1	22	2.76	25.6	20.2	14.2	8.02	12.5	37	8	> 10000		
O=C1C[C@]23CCN(CC4CC4)[C@H](Cc4ccc(O)cc42)[C@]3(O)CC/C1=C/c1ccccc1					39.4	1.8			27	5.3		38.6	
Oc1ccc2c(c1)[C@]13CCN(CC4CC4)C(C2)[C@]1(O)CCc1c([nH]c2ccccc12)C3	6.63	5.75	0.531				3.19	1.06			6.23		
O=C1CCC[C@@]2(O)[C@H]3Cc4ccc(O)cc4[C@@]2(CCN3CC2CC2)C1						0.062				0.057			
O=C1CC[C@@]2(O)[C@H]3Cc4ccc(O)cc4[C@@]2(CCN3CC2CC2)C1	0.648	0.769	2.62			0.25				0.29			
Oc1ccc2c(c1)[C@]13CCN(CC4CC4)C(C2)[C@]1(O)Cc1c([nH]c2ccccc12)C3	2.97	24.7	0.0945				3.76	1.4			> 10000		
Oc1ccc2c(c1)[C@]13CCN(CC4CC4)C(C2)[C@]1(O)Cc1cc2ccccc2nc1C3	3.22	7.2	0.303				> 10000	0.813			> 10000		
O=C1/C(=C/c2ccccc2)C[C@@]2(O)[C@H]3Cc4ccc(O)c5c4[C@@]2(CCN3CC2CC2)[C@H]1O5 [BNTX]	28.3	10.5	3.53			8				3			
O=C1C[C@]23CCN(CC4CC4)[C@H](Cc4ccc(O)cc42)[C@]3(O)CC/C1=C\c1ccccc1					18.4	14.1				9			
O=C1C[C@]23CCN(CC4CC4)C(Cc4ccc(O)cc42)[C@]3(O)CC/C1=C/c1ccccc1	17.5	52.2	9.81				21.4	1.83			19.2		
Oc1ccc2c(c1)[C@]13CCN(CC4CC4)[C@@H](C2)[C@]1(O)Cc1cc2ccccc2nc1C3				20.8		10.7			82.6	23.8			28.1
Oc1ccc2c(c1)[C@]13CCN(CC4CC4)[C@@H](C2)[C@]1(O)Cc1c([nH]c2ccccc12)C3				33	15.4	31.4			38.9	261			
Oc1ccc2c(c1)[C@]13CCN(CC4CC4)[C@H](C2)[C@]1(O)CCc1c([nH]c2ccccc12)C3					10	12.5			64.8	10.8		23.5	
O=C1C[C@]23CCN(CC4CC4)[C@H](Cc4ccc(O)cc42)[C@]3(O)C/C1=C/c1ccccc1	9.65	4.61	0.585			16.5	> 10000	3.17	40.8	7.9	54.6	31.8	30
Oc1ccc2c(c1)[C@]13CCN(CC4CC4)[C@H](C2)[C@]1(O)CCc1cc2ccccc2nc1C3					43.9	1.9			104	7.7		31.2	
O=C1C[C@]23CCN(CC4CC4)C(Cc4ccc(O)cc42)[C@]3(O)CC/C1=C\c1ccccc1	9.11	5.81	0.644				14.7	> 10000					
Oc1ccc2c(c1)[C@]13CCN(CC4CC4)C(C2)[C@]1(O)CCc1cc2ccccc2nc1C3	4.3	17.6	2.3				28.4	7.32			11.6		
